Measured values from article doi:10.1101/2023.03.27.534333v1 (biorxiv, 2023).

Experiments:
[1] = molecular target: T1, METTL16 MTD (residues 1-291) (Homo sapiens, UniProt Q86W50); assay: microscale thermophoresis, His-tag RED-tris-NTA labelled protein; assay type: binding
T1 sequence (Q86W50 1-291): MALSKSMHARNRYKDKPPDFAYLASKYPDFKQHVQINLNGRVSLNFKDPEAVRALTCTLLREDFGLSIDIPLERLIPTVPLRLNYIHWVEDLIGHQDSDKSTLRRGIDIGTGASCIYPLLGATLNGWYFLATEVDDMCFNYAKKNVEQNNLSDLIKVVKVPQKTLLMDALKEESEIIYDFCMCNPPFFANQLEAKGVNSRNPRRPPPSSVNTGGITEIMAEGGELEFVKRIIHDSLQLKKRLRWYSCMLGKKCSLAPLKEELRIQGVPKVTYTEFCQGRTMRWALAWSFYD

full-length METTL16 = molecular target: T2, full-length METTL16 (Homo sapiens, UniProt Q86W50); assay: m6A antibody-based ELISA; assay type: biochemical
T2 sequence (Q86W50 1-562): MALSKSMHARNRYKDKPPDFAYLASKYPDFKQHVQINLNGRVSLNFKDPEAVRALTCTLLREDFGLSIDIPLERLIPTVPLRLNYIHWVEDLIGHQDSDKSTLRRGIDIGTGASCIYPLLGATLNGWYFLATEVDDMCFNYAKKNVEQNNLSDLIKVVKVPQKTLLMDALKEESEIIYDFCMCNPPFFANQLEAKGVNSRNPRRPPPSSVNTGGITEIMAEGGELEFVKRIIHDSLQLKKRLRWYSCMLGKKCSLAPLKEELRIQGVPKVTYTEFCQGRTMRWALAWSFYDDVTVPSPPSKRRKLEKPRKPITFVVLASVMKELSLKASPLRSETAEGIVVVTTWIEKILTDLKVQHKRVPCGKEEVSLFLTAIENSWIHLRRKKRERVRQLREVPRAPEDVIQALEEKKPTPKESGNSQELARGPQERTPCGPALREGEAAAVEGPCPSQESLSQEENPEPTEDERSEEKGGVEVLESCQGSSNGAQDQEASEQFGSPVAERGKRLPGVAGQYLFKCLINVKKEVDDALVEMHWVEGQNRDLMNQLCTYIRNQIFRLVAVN

Row | IC50 (full-length METTL16) | Compound | Kd [1]
1 | 0.0258 ± 0.0172 µM | C/C(=N\N=C(/N)S)c1ccccc1 [compound 1, [(E)-(1-phenylethylidene)amino]thiourea] | 3.31 ± 0.61 µM
2 | 0.0609 ± 0.00275 µM | C/C(=N\NC(N)=S)c1ccc(F)cc1 [compound 2, [(E)-[1-(4-fluorophenyl)ethylidene]amino]thiourea] | 2.84 ± 0.94 µM
